Laboratory results published in PubChem BioAssay (NCI).
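In this assay, cells in 96-well plates receive the compound at five concentrations for 48 hours. Endpoints are linearly interpolated between the surrounding concentrations. TGI marks complete inhibition of growth.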

Legend:
Experiment in all cases: growth of human tumour cells (NCI), 48 h
[1] = test system: CAKI-1 renal
[2] = test system: HT29 colon
[3] = test system: MDA-MB-231 breast
[4] = test system: RPMI-8226 leukemia
[5] = test system: HOP-92 NSCLC
[6] = test system: NCI-H226 lung
[7] = test system: SF-295 CNS
[8] = test system: MALME-3M melanoma
[9] = test system: UO-31 renal
[10] = test system: U251 CNS
[11] = test system: BT-549 breast
[12] = test system: SW-620 colon
[13] = test system: A498 renal
[14] = test system: NCI/ADR-RES ovarian
[15] = test system: A549 NSCLC
[16] = test system: SN12C renal
[17] = test system: TK-10 renal
[18] = test system: SK-MEL-2 melanoma
[19] = test system: COLO 205 colon
[20] = test system: SK-MEL-5 melanoma
[21] = test system: HL-60(TB) leukemia
[22] = test system: SK-OV-3 ovarian
[23] = test system: IGROV1 ovarian
[24] = test system: ACHN renal
[25] = test system: KM12 colon
[26] = test system: SK-MEL-28 melanoma
[27] = test system: DU-145 prostate
[28] = test system: NCI-H23 lung
[29] = test system: MOLT-4 leukemia
[30] = test system: HCT-15 colon
[31] = test system: MDA-MB-435
[32] = test system: HS 578T breast
[33] = test system: HCT-116 colon
[34] = test system: SNB-75 CNS
[35] = test system: OVCAR-4 ovarian
[36] = test system: K-562 leukemia
[37] = test system: OVCAR-5 ovarian
[38] = test system: SNB-19 CNS
[39] = test system: UACC-257 melanoma
[40] = test system: NCI-H522 lung
[41] = test system: NCI-H460 lung
[42] = test system: OVCAR-8 ovarian
[43] = test system: UACC-62 melanoma
[44] = test system: CCRF-CEM leukemia
[45] = test system: MDA-N
[46] = test system: OVCAR-3 ovarian
[47] = test system: RXF 393 renal
[48] = test system: EKVX NSCLC
[49] = test system: 786-0 renal
[50] = test system: M14 melanoma
[51] = test system: PC-3 prostate
[52] = test system: HCC-2998 colon
[53] = test system: SF-268 CNS
[54] = test system: LOX IMVI melanoma
[55] = test system: HOP-62 NSCLC
[56] = test system: T-47D breast
[57] = test system: SF-539 CNS
[58] = test system: MCF7 breast
[59] = test system: SR leukemia

With `CC(=O)Nc1c(S(=O)(=O)c2ccccc2)c(C)c(C)n1Cc1ccccc1` the TGI [1] was > 100 µM, the TGI [2] was > 100 µM and the TGI [3] was > 100 µM. For the same molecule, the TGI [4] was > 100 µM, the TGI [5] was > 100 µM and the TGI [6] was > 100 µM. The TGI [7] was > 100 µM, the TGI [8] was > 100 µM and the TGI [9] was > 100 µM. The TGI [10] was > 100 µM, the TGI [11] was > 100 µM and the TGI [12] was > 100 µM. For the same molecule, the TGI [13] was > 100 µM, the TGI [14] was > 100 µM and the TGI [15] was > 100 µM. For the same molecule, the TGI [16] was > 100 µM, the TGI [17] was > 100 µM and the TGI [18] was > 100 µM. The TGI [19] was > 100 µM, the TGI [20] was > 100 µM and the TGI [21] was > 100 µM. The TGI [22] was > 100 µM, the TGI [23] was > 100 µM and the TGI [24] was > 100 µM. The TGI [25] was > 100 µM, the TGI [26] was > 100 µM and the TGI [27] was > 100 µM. For the same molecule, the TGI [28] was > 100 µM, the TGI [29] was > 100 µM and the TGI [30] was > 100 µM. For the same molecule, the TGI [31] was > 100 µM, the TGI [32] was > 100 µM and the TGI [33] was > 100 µM. For the same molecule, the TGI [34] was > 100 µM, the TGI [35] was > 100 µM and the TGI [36] was > 100 µM. The TGI [37] was > 100 µM, the TGI [38] was > 100 µM and the TGI [39] was > 100 µM. The TGI [40] was > 100 µM, the TGI [41] was > 100 µM and the TGI [42] was > 100 µM. For the same molecule, the TGI [43] was > 100 µM, the TGI [44] was > 100 µM and the TGI [45] was > 100 µM. For the same molecule, the TGI [46] was > 100 µM, the TGI [47] was > 100 µM and the TGI [48] was > 100 µM. For the same molecule, the TGI [49] was > 100 µM, the TGI [50] was > 100 µM and the TGI [51] was > 100 µM. The TGI [52] was > 100 µM and the TGI [53] was > 100 µM.

With `c1csc(-c2ccsc2-c2cccs2)c1` the TGI [1] was > 100 µM, the TGI [2] was > 100 µM and the TGI [4] was 66.8 µM. For the same molecule, the TGI [5] was > 100 µM, the TGI [6] was > 100 µM and the TGI [7] was > 100 µM. The TGI [9] was > 100 µM, the TGI [10] was > 100 µM and the TGI [54] was > 100 µM. The TGI [12] was > 100 µM, the TGI [13] was > 100 µM and the TGI [55] was > 100 µM. For the same molecule, the TGI [14] was > 100 µM, the TGI [15] was 61 µM and the TGI [16] was > 100 µM. The TGI [56] was > 100 µM, the TGI [57] was > 100 µM and the TGI [17] was > 100 µM. For the same molecule, the TGI [19] was > 100 µM, the TGI [20] was > 100 µM and the TGI [21] was 86.7 µM. For the same molecule, the TGI [22] was > 100 µM, the TGI [23] was > 100 µM and the TGI [24] was > 100 µM. For the same molecule, the TGI [25] was > 100 µM, the TGI [27] was > 100 µM and the TGI [28] was 49.7 µM. The TGI [29] was 71.1 µM, the TGI [30] was > 100 µM and the TGI [31] was 53.7 µM. The TGI [32] was > 100 µM, the TGI [33] was > 100 µM and the TGI [34] was > 100 µM. For the same molecule, the TGI [35] was > 100 µM, the TGI [37] was > 100 µM and the TGI [39] was > 100 µM. For the same molecule, the TGI [40] was > 100 µM, the TGI [41] was > 100 µM and the TGI [42] was > 100 µM. For the same molecule, the TGI [43] was > 100 µM, the TGI [44] was > 100 µM and the TGI [45] was > 100 µM. For the same molecule, the TGI [46] was > 100 µM, the TGI [47] was > 100 µM and the TGI [48] was > 100 µM. For the same molecule, the TGI [49] was > 100 µM, the TGI [50] was > 100 µM and the TGI [58] was > 100 µM. For the same molecule, the TGI [59] was 21.3 µM, the TGI [52] was > 100 µM and the TGI [53] was > 100 µM.
